Reference: BigSolDB 2.1

O=C1CCC(c2ccccc2)=NN1
solubility (mole fraction)
Conditions	293.15 K	298.15 K	303.15 K	308.15 K	313.15 K
in transcutol	0.425	0.453	0.478	0.507	0.527
in water	7.45e-07	9.1e-07	1.09e-06	1.34e-06	1.64e-06
